Data published in ChEMBL document CHEMBL4813997, “Discovery of 3-aryl substituted benzoxaboroles as broad-spectrum inhibitors of serine- and metallo-β-lactamases” (Bioorg Med Chem Lett, 2021).
≈ marks a conversion by molar mass, not a printed value. Values belong to the compound of their own block, whether it stands above or below them.

Assays:
[1] = Inhibition of bacterial Beta-lactamase KPC-2 (29 - 289) (unknown origin) expressed in Escherichia coli Transetta (DE3); design: species or system Bacteria
[2] = target: Beta-lactamase TEM (Bacteria, UniProt P62593); test: Inhibition of bacterial Beta-lactamase TEM-1 (24 - 286) (unknown origin) expressed in Escherichia coli Transetta (DE3)
Beta-lactamase TEM, sequence (P62593 whole entry): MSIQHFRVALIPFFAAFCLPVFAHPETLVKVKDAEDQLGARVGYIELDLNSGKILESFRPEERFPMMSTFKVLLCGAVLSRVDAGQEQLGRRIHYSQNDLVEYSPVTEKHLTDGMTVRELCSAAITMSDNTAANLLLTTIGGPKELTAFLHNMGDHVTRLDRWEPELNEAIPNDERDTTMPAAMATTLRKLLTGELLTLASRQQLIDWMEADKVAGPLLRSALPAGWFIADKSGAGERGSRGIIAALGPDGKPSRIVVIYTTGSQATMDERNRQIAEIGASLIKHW

[3] = Inhibition of bacterial Beta-lactamase AmpC (20 - 377) (unknown origin) expressed in Escherichia coli Transetta (DE3); design: species or system Bacteria
[4] = Inhibition of bacterial Beta-lactamase OXA-48 (1 - 265) (unknown origin) expressed in Escherichia coli Transetta (DE3); design: species or system Bacteria
[5] = Inhibition of bacterial New Delhi metallo-beta-lactamase 1 (1- 270) (unknown origin) expressed in Escherichia coli Transetta (DE3); design: species or system Bacteria
[6] = Inhibition of bacterial Beta-lactamase VIM-1 (27 - 266) (unknown origin) expressed in Escherichia coli Transetta (DE3); design: species or system Bacteria
[7] = Inhibition of bacterial Beta-lactamase SFH-1 (3 - 234) expressed in Escherichia coli Transetta (DE3); design: species or system Bacteria
[8] = system: Klebsiella pneumoniae; test: Potentiation of meropenem-induced antibacterial activity against AmpC/TEM-1 producing Klebsiella pneumoniae C692 assessed as MIC of meropenem at 100 uM; assay type: functional
[9] = system: Escherichia coli; test: Potentiation of meropenem-induced antibacterial activity against KPC-2 producing Escherichia coli BAA2340 assessed as MIC of meropenem at 100 uM; assay type: functional
[10] = system: Escherichia coli; test: Potentiation of meropenem-induced antibacterial activity against KPC-2 producing Escherichia coli 11119 assessed as MIC of meropenem at 100 uM; assay type: functional
[11] = system: Klebsiella pneumoniae; test: Potentiation of meropenem-induced antibacterial activity against AmpC/TEM-1 producing Klebsiella pneumoniae C692 assessed as MIC of meropenem at 10 uM; assay type: functional
[12] = system: Escherichia coli; test: Potentiation of meropenem-induced antibacterial activity against KPC-2 producing Escherichia coli BAA2340 assessed as MIC of meropenem at 10 uM; assay type: functional
[13] = system: Escherichia coli; test: Potentiation of meropenem-induced antibacterial activity against KPC-2 producing Escherichia coli 11119 assessed as MIC of meropenem at 10 uM; assay type: functional
[14] = system: HEK-293T; test: Cytotoxicity against human HEK293T cells assessed as reduction in cell viability at 10 to 100 uM; assay type: cell-based; conditions: dose 10-100 µM
[15] = target: Beta-lactamase (Klebsiella pneumoniae, UniProt Q93LQ9); test: Inhibition of Klebsiella pneumoniae KPC-2
Beta-lactamase, sequence (Q93LQ9 whole entry): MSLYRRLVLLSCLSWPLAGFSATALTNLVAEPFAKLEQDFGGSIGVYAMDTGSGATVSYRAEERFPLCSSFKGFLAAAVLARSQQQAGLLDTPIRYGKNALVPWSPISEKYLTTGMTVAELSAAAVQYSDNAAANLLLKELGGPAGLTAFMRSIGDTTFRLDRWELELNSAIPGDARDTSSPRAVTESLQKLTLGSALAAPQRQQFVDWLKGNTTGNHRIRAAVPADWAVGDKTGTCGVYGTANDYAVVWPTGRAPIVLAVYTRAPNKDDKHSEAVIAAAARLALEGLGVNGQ

[16] = system: Escherichia coli; test: Antibacterial activity against Escherichia coli ATCC 25922; assay type: functional
[17] = system: Klebsiella pneumoniae; test: Antibacterial activity against AmpC/TEM-1 producing Klebsiella pneumoniae C692; assay type: functional
[18] = system: Escherichia coli; test: Antibacterial activity against KPC-2 producing Escherichia coli BAA2340; assay type: functional
[19] = system: Escherichia coli; test: Antibacterial activity against KPC-2 producing Escherichia coli 11119; assay type: functional

Structure (SMILES): CNc1ccc(C2OB(O)c3cccc(F)c32)cc1 (stereo unspecified)
- IC50 [1]: 2.41 µM
- IC50 [2]: 37.9 µM
- IC50 [3]: 15.3 µM
- IC50 [4]: 6.49 µM
- IC50 [5]: 51.4 µM
- IC50 [6]: > 100 µM
- IC50 [7]: 1.15 µM

Structure (SMILES): OB1OC(c2c[nH]c3ccc(Br)cc23)c2ccc(F)cc21 (stereo unspecified)
- IC50 [1]: > 100 µM
- IC50 [2]: > 100 µM
- IC50 [3]: > 100 µM
- IC50 [4]: > 100 µM
- IC50 [5]: > 100 µM
- IC50 [6]: > 100 µM
- IC50 [7]: > 100 µM

Structure (SMILES): CN(C)c1ccc(C2OB(O)c3ccc(Cl)cc32)cc1 (stereo unspecified)
- IC50 [1]: 0.086 µM
- IC50 [2]: 1.54 µM
- IC50 [3]: 22.7 µM
- IC50 [4]: 2.34 µM
- IC50 [5]: 9.05 µM
- IC50 [6]: > 100 µM
- IC50 [7]: 3.81 µM
- MIC [8]: > 128 mg/L
- MIC [9]: 0.5 mg/L
- MIC [10]: 8 mg/L
- MIC [11]: > 128 mg/L
- MIC [12]: 2 mg/L
- MIC [13]: 32 mg/L
- Activity [14]: Non-Toxic

Structure (SMILES): CN(C)c1ccc(C2OB(O)c3cccc(F)c32)cc1 (stereo unspecified)
- IC50 [1]: 1.91 µM
- IC50 [2]: 20.7 µM
- IC50 [3]: 15.1 µM
- IC50 [4]: 7.48 µM
- IC50 [5]: 25.6 µM
- IC50 [6]: > 100 µM
- IC50 [7]: 1.83 µM

Structure (SMILES): CN(C)c1ccc(C2OB(O)c3cc(Cl)ccc32)cc1 (stereo unspecified)
- IC50 [1]: 0.81 µM
- IC50 [2]: 4.34 µM
- IC50 [3]: 3.6 µM
- IC50 [4]: 1.96 µM
- IC50 [5]: 61.7 µM
- IC50 [6]: > 100 µM
- IC50 [7]: 0.47 µM

Structure (SMILES): OB1OC(c2c[nH]c3ccc(Cl)cc23)c2ccccc21 (stereo unspecified)
- IC50 [1]: 0.2 µM
- IC50 [2]: > 100 µM
- IC50 [3]: 5.66 µM
- IC50 [4]: > 100 µM
- IC50 [5]: > 100 µM
- IC50 [7]: 18.6 µM

Structure (SMILES): OB1OC(c2ccc(N3CCCCC3)cc2)c2ccccc21 (stereo unspecified)
- IC50 [1]: 0.51 µM
- IC50 [2]: 33 µM
- IC50 [3]: 32.2 µM
- IC50 [4]: 3.44 µM
- IC50 [5]: 11.7 µM
- IC50 [6]: 18.4 µM
- IC50 [7]: 5.27 µM

Structure (SMILES): OB1OC(c2c[nH]c3ccc(F)cc23)c2ccccc21 (stereo unspecified)
- IC50 [1]: 0.36 µM
- IC50 [2]: 88.8 µM
- IC50 [3]: 7.27 µM
- IC50 [4]: > 100 µM
- IC50 [5]: > 100 µM
- IC50 [6]: 62.5 µM
- IC50 [7]: 6.58 µM

Structure (SMILES): OB1OC(c2c[nH]c3ccc(OCc4ccccc4)cc23)c2ccccc21 (stereo unspecified)
- IC50 [1]: > 100 µM
- IC50 [2]: > 100 µM
- IC50 [3]: > 100 µM
- IC50 [4]: > 100 µM
- IC50 [5]: > 100 µM
- IC50 [6]: > 100 µM
- IC50 [7]: > 100 µM

Structure (SMILES): OB1OC(c2c[nH]c3ccc(Br)cc23)c2ccccc21 (stereo unspecified)
- IC50 [1]: 9.43 µM
- IC50 [2]: > 100 µM
- IC50 [3]: 25.9 µM
- IC50 [4]: > 100 µM
- IC50 [5]: 24 µM
- IC50 [6]: 13.1 µM
- IC50 [7]: 14.9 µM

Structure (SMILES): OB1OC(c2ccccc2)c2ccccc21 (stereo unspecified)
- IC50 [1]: 1 µM
- IC50 [2]: 4.46 µM
- IC50 [3]: 29.2 µM
- IC50 [4]: 8.67 µM
- IC50 [5]: 89 µM
- IC50 [6]: 73.8 µM
- IC50 [7]: 3.56 µM

Structure (SMILES): COc1ccc2c(c1)C(c1ccc(N(C)C)cc1)OB2O (stereo unspecified)
- IC50 [1]: 0.18 µM
- IC50 [2]: 1.54 µM
- IC50 [3]: 11.4 µM
- IC50 [4]: 2.93 µM
- IC50 [5]: 38.4 µM
- IC50 [6]: > 100 µM
- IC50 [7]: 4.23 µM

Structure (SMILES): Cc1ccc2[nH]cc(C3OB(O)c4ccccc43)c2c1 (stereo unspecified)
- IC50 [1]: 0.22 µM
- IC50 [2]: > 100 µM
- IC50 [3]: 8.52 µM
- IC50 [4]: > 100 µM
- IC50 [5]: 68 µM
- IC50 [6]: 16.2 µM
- IC50 [7]: 19.4 µM

Structure (SMILES): OB1OC(c2cn(Cc3ccccc3)c3ccccc23)c2ccccc21 (stereo unspecified)
- IC50 [1]: > 100 µM
- IC50 [2]: > 100 µM
- IC50 [3]: > 100 µM
- IC50 [4]: > 100 µM
- IC50 [5]: 15.9 µM
- IC50 [6]: 10.6 µM
- IC50 [7]: 9.6 µM

Structure (SMILES): CN(C)c1ccc(C2OB(O)c3ccc(F)cc32)cc1 (stereo unspecified)
- IC50 [1]: 0.35 µM
- IC50 [2]: 5.68 µM
- IC50 [3]: 39.3 µM
- IC50 [4]: 3.58 µM
- IC50 [5]: 11.2 µM
- IC50 [6]: > 100 µM
- IC50 [7]: 3.64 µM

Structure (SMILES): CNc1ccc(C2OB(O)c3ccccc32)cc1 (stereo unspecified)
- IC50 [1]: 0.1 µM
- IC50 [2]: 3.2 µM
- IC50 [3]: 13.9 µM
- IC50 [4]: 2.37 µM
- IC50 [5]: 57.4 µM
- IC50 [6]: 26.4 µM
- IC50 [7]: 3.02 µM

Structure (SMILES): OB1OC(c2c[nH]c3ccccc23)c2ccccc21 (stereo unspecified)
- IC50 [1]: 2.58 µM
- IC50 [2]: > 100 µM
- IC50 [3]: 3.66 µM
- IC50 [4]: > 100 µM
- IC50 [5]: 6.04 µM
- IC50 [6]: 15.2 µM
- IC50 [7]: 8.5 µM

Structure (SMILES): CN(C)c1ccc(C2OB(O)c3ccccc32)cc1 (stereo unspecified)
- IC50 [1]: 0.18 µM
- IC50 [2]: 0.73 µM
- IC50 [3]: 8.27 µM
- IC50 [4]: 2.41 µM
- IC50 [5]: 8.44 µM
- IC50 [6]: 39.4 µM
- IC50 [7]: 2.52 µM

Structure (SMILES): OB1OC(c2c[nH]c3ccccc23)c2c(F)cccc21 (stereo unspecified)
- IC50 [1]: 6.56 µM
- IC50 [2]: > 100 µM
- IC50 [3]: 10.8 µM
- IC50 [4]: > 100 µM
- IC50 [5]: 25.4 µM
- IC50 [6]: 89.7 µM
- IC50 [7]: 2.17 µM

Structure (SMILES): OB1OC(c2cccs2)c2ccccc21 (stereo unspecified)
- IC50 [1]: 0.41 µM
- IC50 [2]: 6.97 µM
- IC50 [3]: 18.7 µM
- IC50 [4]: 5.45 µM
- IC50 [5]: 22.4 µM
- IC50 [6]: 17.4 µM
- IC50 [7]: 2.47 µM
- MIC [8]: > 128 mg/L
- MIC [9]: 0.5 mg/L
- MIC [10]: 2 mg/L
- MIC [11]: > 128 mg/L
- MIC [12]: 2 mg/L
- MIC [13]: 32 mg/L
- Activity [14]: Non-Toxic

Structure (SMILES): CN(C)c1ccc(C2OB(O)c3cc4c(cc32)OCO4)cc1 (stereo unspecified)
- IC50 [1]: 0.76 µM
- IC50 [2]: 1.15 µM
- IC50 [3]: 5.23 µM
- IC50 [4]: 6.4 µM
- IC50 [5]: 16.6 µM
- IC50 [6]: 51 µM
- IC50 [7]: 2.77 µM

- IC50 [1]: 0.0037 µM
- IC50 [3]: 0.024 µM
- IC50 [4]: 0.17 µM
- IC50 [5]: > 100 µM
- IC50 [6]: > 100 µM
- IC50 [7]: 0.025 µM
Structure (SMILES): NC(=O)[C@@H]1CC[C@@H]2CN1C(=O)N2OS(=O)(=O)O [AVIBACTAM]

- IC50 [15]: 0.67 µM
Structure (SMILES): N#Cc1ccc(Oc2ccc3c(c2)COB3O)cc1 [CRISABOROLE]

Structure (SMILES): C[C@@H](O)[C@H]1C(=O)N2C(C(=O)O)=C(S[C@@H]3CN[C@H](C(=O)N(C)C)C3)[C@H](C)[C@H]12 [MEROPENEM]
- MIC [16]: 0.06 mg/L (≈ 0.156 µM)
- MIC [17]: > 128 mg/L
- MIC [18]: 16 mg/L (≈ 41.7 µM)
- MIC [19]: 64 mg/L (≈ 167 µM)
